Patent US20260257998A1, “ERR MODULATORS” (University of Health Sciences and Pharmacy in St. Louis, priority 2023, published 2026)

Columns and labels:
[1] = target: T1, ERRγ (Homo sapiens, UniProt P62508); test: ERRE luciferase reporter assay in HEK293 cells transfected with pcDNA3.1 ERRγ; type: cell-based; parameters: key to EC50 (ERRγ): ***<1 μM; **1-5 μM; *>5 μM; i.a. (inactive); conditions: 24 hours treatment, luciferase activity
T1 construct: expressed in transfected cells; host or cells: HEK293
T1 sequence (P62508 1-458): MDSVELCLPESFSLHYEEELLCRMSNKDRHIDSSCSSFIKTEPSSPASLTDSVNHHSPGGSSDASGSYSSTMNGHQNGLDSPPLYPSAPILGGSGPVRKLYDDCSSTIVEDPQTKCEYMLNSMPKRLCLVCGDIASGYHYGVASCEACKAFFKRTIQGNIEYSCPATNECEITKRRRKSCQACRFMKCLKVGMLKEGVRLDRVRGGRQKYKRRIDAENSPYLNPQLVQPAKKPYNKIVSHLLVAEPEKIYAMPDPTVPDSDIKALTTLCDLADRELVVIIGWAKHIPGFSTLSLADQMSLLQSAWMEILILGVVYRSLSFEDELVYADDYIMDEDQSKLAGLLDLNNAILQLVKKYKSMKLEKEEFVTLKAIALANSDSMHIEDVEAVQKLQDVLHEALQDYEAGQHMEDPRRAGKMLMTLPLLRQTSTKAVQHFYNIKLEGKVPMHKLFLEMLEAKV
Protocol: (§1) HEK293 cells were maintained in Dulbecco's modified Eagles medium (DMEM) supplemented with 10% fetal bovine serum at 37° C. under 5% CO2. […] Cells were transfected with ERRE reporter construct and pcDNA3.1 ERRα or ERRγ. Twenty-four-hours post-transfection, the cells were treated with vehicle or compound (various concentrations) for 24 hours (4 wells per dose). Luciferase activity was measured using the One-Glo Tox luciferase reporter assay system (Promega) and […] were calculated using GraphPad Prism software.

[2] = target: T2, ERRα (Homo sapiens, UniProt P11474); test: ERRE luciferase reporter assay in HEK293 cells transfected with pcDNA3.1 ERRα; type: cell-based; parameters: key to EC50 (ERRα): ***<1 μM; **1-5 μM; *>5 μM; i.a. (inactive); conditions: 24 hours treatment, luciferase activity
T2 construct: expressed in transfected cells; host or cells: HEK293
T2 sequence (P11474 1-423): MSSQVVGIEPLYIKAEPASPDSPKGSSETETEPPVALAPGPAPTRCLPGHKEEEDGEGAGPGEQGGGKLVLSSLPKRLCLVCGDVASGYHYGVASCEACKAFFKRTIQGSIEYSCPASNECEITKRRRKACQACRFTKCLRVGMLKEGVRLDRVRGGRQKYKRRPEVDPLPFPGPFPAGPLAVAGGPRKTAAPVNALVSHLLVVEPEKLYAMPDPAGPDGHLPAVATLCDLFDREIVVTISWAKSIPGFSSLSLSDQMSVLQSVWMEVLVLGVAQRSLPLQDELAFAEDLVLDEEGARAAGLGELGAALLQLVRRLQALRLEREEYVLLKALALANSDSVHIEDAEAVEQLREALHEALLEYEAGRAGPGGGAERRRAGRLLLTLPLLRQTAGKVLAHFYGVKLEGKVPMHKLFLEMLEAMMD
Protocol: as §1

Row | SMILES | EC50 [1] [µM] | EC50 [2] [µM] | EC50 (ERRγ) [1] | EC50 (ERRα) [2]
1 | Oc1ccccc1C1CC(c2cccs2)=NN1 (stereo not shown) [Entry 17, 2-(3-(Thiophen-2-yl)-4,5-dihydro-1H-pyrazol-5-yl)phenol] | > 5 | > 5 | – | –
2 | Oc1ccccc1C1=NNC(c2c[nH]cn2)C1 (stereo not shown) [Entry 109, 2-(5-(1H-imidazol-4-yl)-4,5-dihydro-1H-pyrazol-3-yl)phenol] | – | – | i.a. | i.a.
3 | FC(F)(F)c1ccc(C2=NNC(c3ccc4ccccc4c3)C2)cc1 (stereo not shown) [Entry 72, 5-(naphthalen-2-yl)-3-(4-(trifluoromethyl)phenyl)-4,5-dihydro-1H-pyrazole] | – | – | i.a. | i.a.
4 | Oc1ccccc1C1=NNC(c2ccccc2O)C1 (stereo not shown) [Entry 30, 2,2′-(4,5-Dihydro-1H-pyrazole-3,5-diyl)diphenol] | > 5 | > 5 | – | –
5 | COc1cccc(C2CC(c3ccc(C(F)(F)F)cc3)=NN2)c1O (stereo not shown) [Entry 64, 2-methoxy-6-(3-(4-(trifluoromethyl)phenyl)-4,5-dihydro-1H-pyrazol-5-yl)phenol] | 1 to 5 | – | – | i.a.
6 | Nc1ccccc1C1CC(c2ccccc2)=NN1 (stereo not shown) [Entry 37, 2-(3-Phenyl-4,5-dihydro-1H-pyrazol-5-yl)aniline] | < 1 | < 1 | – | –
7 | Oc1cccc(C2CC(c3cc(C(F)(F)F)cc(C(F)(F)F)c3)=NN2)c1 (stereo not shown) [Entry 5, 3-(3-(3,5-bis(trifluoromethyl)phenyl)-4,5-dihydro-1H-pyrazol-5-yl)phenol] | – | – | i.a. | i.a.
8 | Cc1nc[nH]c1C1CC(c2ccc(Br)cc2)=NN1 (stereo not shown) [Entry 105, 3-(4-bromophenyl)-5-(4-methyl-1H-imidazol-5-yl)-4,5-dihydro-1H-pyrazole] | > 5 | > 5 | – | –
9 | Oc1cccc(C2=NNC(c3ccc(Br)cc3)C2)c1 (stereo not shown) [Entry 108, 3-(5-(4-bromophenyl)-4,5-dihydro-1H-pyrazol-3-yl)phenol] | 1 to 5 | 1 to 5 | – | –
10 | Oc1cccc(C2CC(c3ccc(Br)cc3)=NN2)c1 (stereo not shown) [Entry 79, 3-(3-(4-bromophenyl)-4,5-dihydro-1H-pyrazol-5-yl)phenol] | 1 to 5 | 1 to 5 | – | –
11 | Brc1ccc(C2=NNC(c3ccc(Br)cc3)C2)cc1 (stereo not shown) [Entry 113, 3,5-bis(4-bromophenyl)-4,5-dihydro-1H-pyrazole] | – | – | i.a. | i.a.
12 | Oc1ccccc1C1CC(c2ccccc2OC(F)(F)F)=NN1 (stereo not shown) [Entry 4, 2-(3-(2-(trifluoromethoxy)phenyl)-4,5-dihydro-1H-pyrazol-5-yl)phenol] | – | – | i.a. | i.a.
13 | Oc1c(F)cccc1C1CC(c2ccc(Br)cc2)=NN1 (stereo not shown) [Entry 32, 2-(3-(4-Bromophenyl)-4,5-dihydro-1H-pyrazol-5-yl)-6-fluorophenol] | – | – | i.a. | i.a.
14 | Oc1ccc(C2CC(c3ccc(C(F)(F)F)cc3)=NN2)cc1Cl (stereo not shown) [Entry 71, 2-chloro-4-(3-(4-(trifluoromethyl)phenyl)-4,5-dihydro-1H-pyrazol-5-yl)phenol] | – | – | i.a. | i.a.
15 | Oc1ccc(C2CC(c3ccc(F)cc3)=NN2)cc1 (stereo not shown) [Entry 85, 4-(3-(4-fluorophenyl)-4,5-dihydro-1H-pyrazol-5-yl)phenol] | > 5 | > 5 | – | –
16 | Oc1ccc2cc(C3CC(c4ccc(Br)cc4)=NN3)ccc2c1 (stereo not shown) [Entry 93, 6-(3-(4-bromophenyl)-4,5-dihydro-1H-pyrazol-5-yl)naphthalen-2-ol] | – | – | i.a. | i.a.
17 | COc1cccc(C2CC(c3ccc(Br)cc3)=NN2)c1O (stereo not shown) [Entry 36, 2-(3-(4-Bromophenyl)-4,5-dihydro-1H-pyrazol-5-yl)-6-methoxyphenol] | < 1 | < 1 | – | –
18 | Oc1cccc(C2=NNC(c3ccc4ccccc4c3)C2)c1 (stereo not shown) [Entry 99, 3-(5-(naphthalen-2-yl)-4,5-dihydro-1H-pyrazol-3-yl)phenol] | 1 to 5 | 1 to 5 | – | –
19 | Oc1ccc(C2CC(c3cccc(O)c3)=NN2)cc1 (stereo not shown) [Entry 100, 3-(5-(4-hydroxyphenyl)-4,5-dihydro-1H-pyrazol-3-yl)phenol] | 1 to 5 | 1 to 5 | – | –

Row | SMILES | EC50 [1] [µM] | EC50 [2] [µM] | EC50 (ERRγ) [1] | EC50 (ERRα) [2]
20 | Oc1ccc(C2CC(c3ccc(Br)cc3)=NN2)cc1 (stereo not shown) [Entry 80, 4-(3-(4-bromophenyl)-4,5-dihydro-1H-pyrazol-5-yl)phenol] | 1 to 5 | < 1 | – | –
21 | Oc1ccc(C2CC(c3cccc(Br)c3)=NN2)cc1 (stereo not shown) [Entry 84, 4-(3-(3-bromophenyl)-4,5-dihydro-1H-pyrazol-5-yl)phenol] | > 5 | > 5 | – | –
22 | Cc1cccc(C2=NNC(c3ccccc3O)C2)c1 (stereo not shown) [Entry 23, 2-(3-(m-Tolyl)-4,5-dihydro-1H-pyrazol-5-yl)phenol] | 1 to 5 | < 1 | – | –
23 | FC(F)(F)c1ccc(C2=NNC(c3ccccc3)C2)cc1 (stereo not shown) [Entry 75, 5-phenyl-3-(4-(trifluoromethyl)phenyl)-4,5-dihydro-1H-pyrazole] | 1 to 5 | 1 to 5 | – | –
24 | Oc1ccccc1C1CC(c2ccc(Cl)cc2)=NN1 (stereo not shown) [Entry 47, 2-(3-(4-Chlorophenyl)-4,5-dihydro-1H-pyrazol-5-yl)phenol] | 1 to 5 | > 5 | – | –
25 | Fc1cccc(C2=NNC(c3ccc4ccccc4c3)C2)c1 (stereo not shown) [Entry 88, 3-(3-fluorophenyl)-5-(naphthalen-2-yl)-4,5-dihydro-1H-pyrazole] | 1 to 5 | – | – | i.a.
26 | Brc1cccc(C2=NNC(c3ccc4ccccc4c3)C2)c1 (stereo not shown) [Entry 86, 3-(3-bromophenyl)-5-(naphthalen-2-yl)-4,5-dihydro-1H-pyrazole] | > 5 | > 5 | – | –
27 | Oc1ccccc1C1CC(c2ccc(Cl)cc2Cl)=NN1 (stereo not shown) [Entry 48, 2-(3-(2,4-Dichlorophenyl)-4,5-dihydro-1H-pyrazol-5-yl)phenol] | – | – | i.a. | i.a.
28 | COc1ccc(C2=NNC(c3cc(Br)cc(Br)c3O)C2)cc1 (stereo not shown) [Entry 117, 2,4-dibromo-6-(3-(4-methoxyphenyl)-4,5-dihydro-1H-pyrazol-5-yl)phenol] | – | – | i.a. | i.a.
29 | Oc1c(Cl)cccc1C1CC(c2ccc(Br)cc2)=NN1 (stereo not shown) [Entry 45, 2-(3-(4-Bromophenyl)-4,5-dihydro-1H-pyrazol-5-yl)-6-chlorophenol] | 1 to 5 | 1 to 5 | – | –
30 | Oc1ccccc1C1=NNC(c2ccc(Br)cc2O)C1 (stereo not shown) [Entry 120, 5-bromo-2-(3-(2-hydroxyphenyl)-4,5-dihydro-1H-pyrazol-5-yl)phenol] | > 5 | > 5 | – | –
31 | CC(C)c1ccc(O)c(C2CC(c3ccc(F)cc3)=NN2)c1 (stereo not shown) [Entry 63, 2-(3-(4-fluorophenyl)-4,5-dihydro-1H-pyrazol-5-yl)-4-isopropylphenol] | – | – | i.a. | i.a.
32 | Oc1cccc(C2=NNC(c3cnc[nH]3)C2)c1 (stereo not shown) [Entry 102, 3-(5-(1H-imidazol-5-yl)-4,5-dihydro-1H-pyrazol-3-yl)phenol] | > 5 | > 5 | – | –
33 | Oc1ccccc1C1CC(c2ccc(Br)cc2)=NN1 (stereo not shown) [Entry 24, 2-(3-(4-Bromophenyl)-4,5-dihydro-1H-pyrazol-5-yl)phenol] | < 1 | < 1 | – | –
34 | COc1ccc(C2=NNC(c3ccc(C)cc3O)C2)cc1 (stereo not shown) [Entry 59, 2-(3-(4-methoxyphenyl)-4,5-dihydro-1H-pyrazol-5-yl)-5-methylphenol] | > 5 | > 5 | – | –
35 | Oc1ccccc1C1=NNC(c2ccc(Br)cc2)C1 (stereo not shown) [Entry 95, 2-(5-(4-bromophenyl)-4,5-dihydro-1H-pyrazol-3-yl)phenol] | 1 to 5 | < 1 | – | –
36 | Clc1ccc(C2CC(c3ccccc3Br)=NN2)cc1Cl (stereo not shown) [Entry 111, 3-(2-bromophenyl)-5-(3,4-dichlorophenyl)-4,5-dihydro-1H-pyrazole] | – | – | i.a. | i.a.
37 | Oc1cccc(C2CC(c3ccc(C(F)(F)F)cc3)=NN2)c1 (stereo not shown) [Entry 74, 3-(3-(4-(trifluoromethyl)phenyl)-4,5-dihydro-1H-pyrazol-5-yl)phenol] | 1 to 5 | 1 to 5 | – | –
38 | Oc1ccc(C2CC(c3cccc(C(F)(F)F)c3)=NN2)cc1 (stereo not shown) [Entry 82, 4-(3-(3-(trifluoromethyl)phenyl)-4,5-dihydro-1H-pyrazol-5-yl)phenol] | – | – | i.a. | i.a.
